In patent US12185723B2, “Herbicidally active 3-phenylisoxazoline-5-carboxamides of s-containing cyclopentenylcarboxylic esters” (Bayer Aktiengesellschaft, priority 2019, dated 2025):

Legend:
Type in all cases: in vivo
Echinochloa crus-galli = experiment: Post-emergence herbicidal action against ECHCG; conditions: visual rating about 3 weeks after treatment
Procedure, shortened: (§1)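 Post-emergence application onto green parts at the one-leaf stage, 2 to 3 weeks after sowing in sandy loam. Spray carried 0.5% additive at a water rate of 600 l/ha. Percent activity assessed by eye at about 3 weeks, where 100% means plants died and 0% matches controls.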

Veronica persica = experiment: Post-emergence herbicidal action against VERPE
Procedure, shortened: as §1

Avena fatua = experiment: Post-emergence herbicidal action against AVEFA; conditions: visual rating about 3 weeks after treatment
Procedure, shortened: as §1

Lolium rigidum = experiment: Post-emergence herbicidal action against LOLRI; conditions: visual rating about 3 weeks after treatment
Procedure, shortened: as §1

Hordeum murinum = experiment: Post-emergence herbicidal action against HORMU
Procedure, shortened: as §1

Alopecurus myosuroides = experiment: Post-emergence herbicidal action against ALOMY; conditions: visual rating about 3 weeks after treatment
Procedure, shortened: as §1

Matricaria inodora = experiment: Post-emergence herbicidal action against MATIN
Procedure, shortened: as §1

Viola tricolor = experiment: Post-emergence herbicidal action against VIOTR
Procedure, shortened: as §1

DIGSA = experiment: Post-emergence herbicidal action against DIGSA; conditions: visual rating about 3 weeks after treatment
Procedure, shortened: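 Greenhouse-grown plants sprayed at one-leaf stage (2–3 weeks after sowing) with WP or EC formulations as aqueous suspension/emulsion plus 0.5% additive, 600 l/ha water. Activity rated visually about 3 weeks later versus untreated controls, 100% = plants dead, 0% = like controls.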

Amaranthus retroflexus = experiment: Post-emergence herbicidal action against AMARE
Procedure, shortened: as §1

Stellaria media = experiment: Post-emergence herbicidal action against STEME
Procedure, shortened: as §1

Setaria viridis = experiment: Post-emergence herbicidal action against SETVI; conditions: visual rating about 3 weeks after treatment
Procedure, shortened: as §1

Polygonum convolvulus = experiment: Post-emergence herbicidal action against POLCO
Procedure, shortened: as §1

Pharbitis purpurea = experiment: Post-emergence herbicidal action against PHBPU
Procedure, shortened: as §1

Abutilon theophrasti = experiment: Post-emergence herbicidal action against ABUTH; conditions: visual rating about 3 weeks after treatment
Procedure, shortened: as §1

[1] = 80 g a.i./ha, visual rating about 3 weeks after treatment

| SMILES | Herbicidal action against [%] ECHCG (Echinochloa crus-galli; 20 g a.i./ha) [%] | Herbicidal action against [%] ECHCG (Echinochloa crus-galli; 80 g a.i./ha) [%] | Herbicidal action against [%] VERPE (Veronica persica; 20 g a.i./ha) [%] | Herbicidal action against [%] VERPE (Veronica persica; 80 g a.i./ha) [%] | Herbicidal action against [%] AVEFA (Avena fatua; 20 g a.i./ha) [%] | Herbicidal action against [%] AVEFA (Avena fatua; 80 g a.i./ha) [%] | Herbicidal action against [%] LOLRI (Lolium rigidum; 20 g a.i./ha) [%] | Herbicidal action against [%] LOLRI (Lolium rigidum; 80 g a.i./ha) [%] | Herbicidal action against [%] HORMU (Hordeum murinum; 20 g a.i./ha) [%] | Herbicidal action against [%] HORMU (Hordeum murinum; 80 g a.i./ha) [%] | Herbicidal action against [%] ALOMY (Alopecurus myosuroides; 20 g a.i./ha) [%] | Herbicidal action against [%] ALOMY (Alopecurus myosuroides; 80 g a.i./ha) [%] | Herbicidal action against [%] MATIN (Matricaria inodora; [1]) [%] | Herbicidal action against [%] VIOTR (Viola tricolor; 80 g a.i./ha) [%] | Herbicidal action against [%] DIGSA (DIGSA; 20 g a.i./ha) [%] | Herbicidal action against [%] DIGSA (DIGSA; 80 g a.i./ha) [%] | Herbicidal action against [%] AMARE (Amaranthus retroflexus; 20 g a.i./ha) [%] | Herbicidal action against [%] AMARE (Amaranthus retroflexus; [1]) [%] | Herbicidal action against [%] STEME (Stellaria media; 80 g a.i./ha) [%] | Herbicidal action against [%] SETVI (Setaria viridis; 20 g a.i./ha) [%] | other results |
| --- | --- | --- | --- | --- | --- | --- | --- | --- | --- | --- | --- | --- | --- | --- | --- | --- | --- | --- | --- | --- | --- |
| CSCCOC(=O)C1C=CC(NC(=O)C2(C(F)(F)F)CC(c3cc(F)cc(F)c3)=NO2)C1 (stereo not shown) [Example I-17] | 80 | 90 | 80 | 80 | 100 | 100 | 100 | 100 | 90 | 90 | 90 | 90 | 80 | 80 | 90 | 90 | 80 | 80 | 90 | 80 | Herbicidal action against [%] MATIN (Matricaria inodora; 20 g a.i./ha): 80%; Herbicidal action against [%] VIOTR (Viola tricolor; 20 g a.i./ha): 80%; Herbicidal action against [%] STEME (Stellaria media; 20 g a.i./ha): 80%; Herbicidal action against [%] SETVI (Setaria viridis; 80 g a.i./ha): 80%; Herbicidal action against [%] POLCO (Polygonum convolvulus; 20 g a.i./ha): 80%; Herbicidal action against [%] POLCO (Polygonum convolvulus; 80 g a.i./ha): 80%; Herbicidal action against [%] PHBPU (Pharbitis purpurea; 20 g a.i./ha): 80%; Herbicidal action against [%] PHBPU (Pharbitis purpurea; 80 g a.i./ha): 80%; Herbicidal action against [%] ABUTH (Abutilon theophrasti; 20 g a.i./ha): 80%; Herbicidal action against [%] ABUTH (Abutilon theophrasti; 80 g a.i./ha): 80% |
| C=CC1(C(=O)NC2C=CC(C(=O)OCCSC)C2)CC(c2cc(F)cc(F)c2)=NO1 (stereo not shown) [Example I-18] | 90 | 90 | 90 | 90 | 90 | 100 | 90 | 90 | 100 | 100 | 100 | 100 | 90 | 80 | 90 | 90 | 90 | 90 | 90 | 80 | Herbicidal action against [%] MATIN (Matricaria inodora; 20 g a.i./ha): 90%; Herbicidal action against [%] VIOTR (Viola tricolor; 20 g a.i./ha): 90%; Herbicidal action against [%] STEME (Stellaria media; 20 g a.i./ha): 90%; Herbicidal action against [%] SETVI (Setaria viridis; 80 g a.i./ha): 80%; Herbicidal action against [%] POLCO (Polygonum convolvulus; 20 g a.i./ha): 90%; Herbicidal action against [%] POLCO (Polygonum convolvulus; 80 g a.i./ha): 90%; Herbicidal action against [%] PHBPU (Pharbitis purpurea; 20 g a.i./ha): 80%; Herbicidal action against [%] PHBPU (Pharbitis purpurea; 80 g a.i./ha): 80%; Herbicidal action against [%] ABUTH (Abutilon theophrasti; 20 g a.i./ha): 90%; Herbicidal action against [%] ABUTH (Abutilon theophrasti; 80 g a.i./ha): 90% |
| CSCCOC(=O)C1C=CC(NC(=O)C2(C(F)(F)F)CC(c3cccc(C#N)c3)=NO2)C1 (mixture of isomers) [Example I-44] | 80 | 80 | 90 | 90 | 80 | 90 | 90 | 90 | 80 | 80 | 90 | 90 | 80 | 90 | 90 | 90 | 80 | 80 | 90 | 80 | Herbicidal action against [%] SETVI (Setaria viridis; 80 g a.i./ha): 90%; Herbicidal action against [%] POLCO (Polygonum convolvulus; 20 g a.i./ha): 80%; Herbicidal action against [%] POLCO (Polygonum convolvulus; 80 g a.i./ha): 90%; Herbicidal action against [%] PHBPU (Pharbitis purpurea; 80 g a.i./ha): 80%; Herbicidal action against [%] ABUTH (Abutilon theophrasti; 80 g a.i./ha): 80% |
